In patent US5250283A, “Organic contrast agent analog and method of making same” (priority 1992, dated 1993):
Like-named read-outs stand apart in the source and are kept apart here.

Columns and labels:
[1] = Tissue distribution 90 min after i.v. TFA-IOP (100 umol/kg) or IOP (100 in text, 104 umol/kg in tables) in rats; assay type: in vivo; conditions: rat; for concentration at 1.5 h: 100 umol/kg; for concentration at 1.5 h / uMoles per gram tissue / uMoles per kg / Percentage of dose in tissue: i.v.; for Percentage of dose in tissue: Table 6; for tissue uptake at 1.5 h: read-out: Percentage of dose per gram
Description: No standard curves were compiled for these tissues. The values given
represent concentrations generated using the LIVER analysis routine and
standard curve. Because this routine utilizes a control LIVER spectra for
background modeling, erroneous Iodine concentration values for these
tissues may result due to inappropriate background removal.

[2] = Plasma concentration after i.v. IOP or TFA-IOP in rats; assay type: in vivo; conditions: plasma, iv, 100 umol/kg, rat
[3] = Biliary excretion and bile flow after i.v. TFA-IOP (100 umol/kg) or IOP (100 in text, 104 umol/kg in tables) in rats; conditions: for Percentage of dose per kg. body wt.: rat bile; for Percentage of dose per kg. body wt. / Bile flow / Bile flow per kg b.w. / Bile flow per kg l.w.: i.v.
Description: Tissues examined included liver, spleen, upper GI, lower GI, kidney, lung and heart. The length of each study was 90 minutes, during which time bile, urine and plasma samples were taken to monitor uptake and excretion. NMR relaxation rates for liver and plasma were also examined to note whether uptake of either compound might possible alter these parameters.

[4] = Urinary excretion after i.v. IOP or TFA-IOP in rats; assay type: in vivo; conditions: rat

CCC(Cc1c(I)cc(I)c(N)c1I)C(=O)O (centres unmarked) [IOP, iopanoic acid, reference compound]
concentration at 1.5 h ([1]; heart, iv, 90 min, liver standard curve used, may be erroneous, read-out: Heart concentration): 259 µM | uMoles per gram tissue ([1]; 90 min, heart): .26 uMOLES per gram | uMoles per kg ([1]; 90 min, heart): 259.38 uMOLES per kg | Percentage of dose in tissue ([1]; 90 min, heart): .72 PERCENTAGE OF DOSE | uMoles per gram tissue ([1]; 90 min, kidney): .11 uMOLES per gram | uMoles per kg ([1]; 90 min, kidney): 105.40 uMOLES per kg | Percentage of dose in tissue ([1]; 90 min, kidney): .69 PERCENTAGE OF DOSE | uMoles per gram tissue ([1]; 90 min, liver): .51 uMOLES per gram | uMoles per kg ([1]; 90 min, liver): 511.90 uMOLES per kg | Percentage of dose in tissue ([1]; 90 min, liver): 14.52 PERCENTAGE OF DOSE | uMoles per gram tissue ([1]; 90 min, lower GI): .14 uMOLES per gram | uMoles per kg ([1]; 90 min, lower GI): 135.23 uMOLES per kg | Percentage of dose in tissue ([1]; 90 min, lower GI): .59 PERCENTAGE OF DOSE | uMoles per gram tissue ([1]; 90 min, lung): .32 uMOLES per gram | uMoles per kg ([1]; 90 min, lung): 324.91 uMOLES per kg | Percentage of dose in tissue ([1]; 90 min, lung): 1.21 PERCENTAGE OF DOSE | uMoles per gram tissue ([1]; 90 min, spleen): .26 uMOLES per gram | uMoles per kg ([1]; 90 min, spleen): 255.54 uMOLES per kg | Percentage of dose in tissue ([1]; 90 min, spleen): .45 PERCENTAGE OF DOSE | uMoles per gram tissue ([1]; 90 min, upper GI): .31 uMOLES per gram | uMoles per kg ([1]; 90 min, upper GI): 307.91 uMOLES per kg | Percentage of dose in tissue ([1]; 90 min, upper GI): 1.31 PERCENTAGE OF DOSE | % of dose in heart ([1]; in vivo, iv, 90 min): 0.72% | % of dose in kidney ([1]; in vivo, iv, 90 min): 0.69% | % of dose in liver ([1]; in vivo, iv, 90 min): 14.53% | % of dose in lower GI ([1]; in vivo, iv, 90 min): 0.59% | % of dose in lung ([1]; in vivo, iv, 90 min): 1.21% | % of dose in spleen ([1]; in vivo, iv, 90 min): 0.45% | % of dose in upper GI ([1]; in vivo, iv, 90 min): 1.31% | tissue uptake at 1.5 h ([1]; in vivo, iv, 90 min, heart): 0.61 %ID/g | tissue uptake at 1.5 h ([1]; in vivo, iv, 90 min, kidney): 0.25 %ID/g | tissue uptake at 1.5 h ([1]; in vivo, iv, 90 min, liver): 1.21 %ID/g | tissue uptake at 1.5 h ([1]; in vivo, iv, 90 min, lower GI): 0.32 %ID/g | tissue uptake at 1.5 h ([1]; in vivo, iv, 90 min, lung): 0.77 %ID/g | tissue uptake at 1.5 h ([1]; in vivo, iv, 90 min, spleen): 0.61 %ID/g | tissue uptake at 1.5 h ([1]; in vivo, iv, 90 min, upper GI): 0.73 %ID/g | concentration at 1.5 h ([1]; kidney, iv, 90 min post injection, read-out: Kidney concentration): 105 µM | concentration at 1.5 h ([1]; kidney, iv, 90 min post injection, read-out: kidney concentration): 105 µM | concentration at 1.5 h ([1]; liver, iv, 90 min post injection, read-out: Liver concentration): 512 µM | concentration at 1.5 h ([1]; liver, iv, 90 min post injection, read-out: liver concentration): 512 µM | concentration at 1.5 h ([1]; lower gi, iv, 90 min, liver standard curve used, may be erroneous, read-out: Lower GI concentration): 135 µM | concentration at 1.5 h ([1]; lung, iv, 90 min, liver standard curve used, may be erroneous, read-out: Lung concentration): 325 µM | concentration at 1.5 h ([1]; spleen, iv, 90 min, liver standard curve used, may be erroneous, read-out: Spleen concentration): 256 µM | concentration at 1.5 h ([1]; upper gi, iv, 90 min, liver standard curve used, may be erroneous, read-out: Upper GI concentration): 308 µM | concentration at 0.5 h ([2]; 30 min): 557 µM | concentration at 50 min ([2]; 50 min): 508 µM | concentration at 1 h ([2]; 60 min): 462 µM | concentration at 70 min ([2]; 70 min): 462 µM | concentration at 80 min ([2]; 80 min): 404 µM | concentration at 1.5 h ([2]; 90 min): 373 µM | Percentage of dose per kg. body wt. ([3]; 0-10 min): 1.29 PERCENTAGE OF DOSE per kg. bod | Percentage of dose per kg. body wt. ([3]; 10-20 min): 4.38 PERCENTAGE OF DOSE per kg. bod | Percentage of dose per kg. body wt. ([3]; 20-30 min): 6.60 PERCENTAGE OF DOSE per kg. bod | Percentage of dose per kg. body wt. ([3]; 30-40 min): 5.61 PERCENTAGE OF DOSE per kg. bod | Percentage of dose per kg. body wt. ([3]; 40-50 min): 6.55 PERCENTAGE OF DOSE per kg. bod | Percentage of dose per kg. body wt. ([3]; 50-60 min): 3.86 PERCENTAGE OF DOSE per kg. bod | Percentage of dose per kg. body wt. ([3]; 60-70 min): 4.71 PERCENTAGE OF DOSE per kg. bod | Percentage of dose per kg. body wt. ([3]; 70-80 min): 4.61 PERCENTAGE OF DOSE per kg. bod | Percentage of dose per kg. body wt. ([3]; 80-90 min): 5.45 PERCENTAGE OF DOSE per kg. bod | Cmax at 1.5 h ([3]; rat, bile, iv, 100 umol/kg): 10000 µM | concentration at 5 min ([3]; rat, bile, iv, 100 umol/kg): 1610 µM | concentration at 10 min ([3]; rat, bile, iv, 100 umol/kg): 1610 µM | concentration at 0.25 h ([3]; rat, bile, iv, 100 umol/kg): 8660 µM | concentration at 20 min ([3]; rat, bile, iv, 100 umol/kg): 8660 µM | concentration at 25 min ([3]; rat, bile, iv, 100 umol/kg): 10500 µM | concentration at 0.5 h ([3]; rat, bile, iv, 100 umol/kg): 10500 µM | concentration at 35 min ([3]; rat, bile, iv, 100 umol/kg): 9850 µM | concentration at 40 min ([3]; rat, bile, iv, 100 umol/kg): 9850 µM | concentration at 50 min ([3]; rat, bile, iv, 100 umol/kg): 9670 µM | concentration at 55 min ([3]; rat, bile, iv, 100 umol/kg): 7320 µM | concentration at 1 h ([3]; rat, bile, iv, 100 umol/kg): 7320 µM | concentration at 65 min ([3]; rat, bile, iv, 100 umol/kg): 7530 µM | concentration at 70 min ([3]; rat, bile, iv, 100 umol/kg): 7530 µM | concentration at 1.25 h ([3]; rat, bile, iv, 100 umol/kg): 7760 µM | concentration at 80 min ([3]; rat, bile, iv, 100 umol/kg): 7760 µM | concentration at 85 min ([3]; rat, bile, iv, 100 umol/kg): 9560 µM | concentration at 1.5 h ([3]; rat, bile, iv, 100 umol/kg): 9560 µM | dose excreted at 1.5 h ([3]; rat, bile, iv, 100 umol/kg): 18% | Bile flow ([3]; rat, 0-10 min): .01375 mL/min | Bile flow per kg b.w. ([3]; rat, 0-10 min): .03386 ml/min per kg b.w. | Bile flow per kg l.w. ([3]; rat, 0-10 min): 1.147 ml/min per kg l.w. | Bile flow ([3]; rat, 10-20 min): .00867 mL/min | Bile flow per kg b.w. ([3]; rat, 10-20 min): .02136 ml/min per kg b.w. | Bile flow per kg l.w. ([3]; rat, 10-20 min): .72404 ml/min per kg l.w. | Bile flow ([3]; rat, 20-30 min): .01077 mL/min | Bile flow per kg b.w. ([3]; rat, 20-30 min): .02652 ml/min per kg b.w. | Bile flow per kg l.w. ([3]; rat, 20-30 min): .89866 ml/min per kg l.w. | Bile flow ([3]; rat, 30-40 min): .00977 mL/min | Bile flow per kg b.w. ([3]; rat, 30-40 min): .02406 ml/min per kg b.w. | Bile flow per kg l.w. ([3]; rat, 30-40 min): .81528 ml/min per kg l.w. | Bile flow ([3]; rat, 40-50 min): .01161 mL/min | Bile flow per kg b.w. ([3]; rat, 40-50 min): .02861 ml/min per kg b.w. | Bile flow per kg l.w. ([3]; rat, 40-50 min): .96953 ml/min per kg l.w. | Bile flow ([3]; rat, 50-60 min): .00904 mL/min | Bile flow per kg b.w. ([3]; rat, 50-60 min): .02225 ml/min per kg b.w. | Bile flow per kg l.w. ([3]; rat, 50-60 min): .75417 ml/min per kg l.w. | Bile flow ([3]; rat, 60-70 min): .01072 mL/min | Bile flow per kg b.w. ([3]; rat, 60-70 min): .02640 ml/min per kg b.w. | Bile flow per kg l.w. ([3]; rat, 60-70 min): .89457 ml/min per kg l.w. | Bile flow ([3]; rat, 70-80 min): .01018 mL/min | Bile flow per kg b.w. ([3]; rat, 70-80 min): .02506 ml/min per kg b.w. | Bile flow per kg l.w. ([3]; rat, 70-80 min): .84942 ml/min per kg l.w. | Bile flow ([3]; rat, 80-90 min): .00977 mL/min | Bile flow per kg b.w. ([3]; rat, 80-90 min): .02407 ml/min per kg b.w. | Bile flow per kg l.w. ([3]; rat, 80-90 min): .81586 ml/min per kg l.w. | dose excreted at 10 min ([3]; rat, in vivo, iv, 100 umol/kg, Percentage of dose in bile sample, 0-10 min): 0.52% | dose excreted at 20 min ([3]; rat, in vivo, iv, 100 umol/kg, Percentage of dose in bile sample, 10-20 min): 1.78% | dose excreted at 0.5 h ([3]; rat, in vivo, iv, 100 umol/kg, Percentage of dose in bile sample, 20-30 min): 2.68% | dose excreted at 40 min ([3]; rat, in vivo, iv, 100 umol/kg, Percentage of dose in bile sample, 30-40 min): 2.28% | dose excreted at 50 min ([3]; rat, in vivo, iv, 100 umol/kg, Percentage of dose in bile sample, 40-50 min): 2.66% | dose excreted at 1 h ([3]; rat, in vivo, iv, 100 umol/kg, Percentage of dose in bile sample, 50-60 min): 1.57% | dose excreted at 70 min ([3]; rat, in vivo, iv, 100 umol/kg, Percentage of dose in bile sample, 60-70 min): 1.91% | dose excreted at 80 min ([3]; rat, in vivo, iv, 100 umol/kg, Percentage of dose in bile sample, 70-80 min): 1.87% | dose excreted at 1.5 h ([3]; rat, in vivo, iv, 100 umol/kg, Percentage of dose in bile sample, 80-90 min): 2.21% | dose excreted at 10 min ([3]; rat, in vivo, iv, 100 umol/kg, Percentage of dose running total in bile, through 0-10 min): 0.52% | dose excreted at 20 min ([3]; rat, in vivo, iv, 100 umol/kg, Percentage of dose running total in bile, through 10-20 min): 2.3% | dose excreted at 0.5 h ([3]; rat, in vivo, iv, 100 umol/kg, Percentage of dose running total in bile, through 20-30 min): 4.98% | dose excreted at 40 min ([3]; rat, in vivo, iv, 100 umol/kg, Percentage of dose running total in bile, through 30-40 min): 7.26% | dose excreted at 50 min ([3]; rat, in vivo, iv, 100 umol/kg, Percentage of dose running total in bile, through 40-50 min): 9.92% | dose excreted at 1 h ([3]; rat, in vivo, iv, 100 umol/kg, Percentage of dose running total in bile, through 50-60 min): 11.5% | dose excreted at 70 min ([3]; rat, in vivo, iv, 100 umol/kg, Percentage of dose running total in bile, through 60-70 min): 13.4% | dose excreted at 80 min ([3]; rat, in vivo, iv, 100 umol/kg, Percentage of dose running total in bile, through 70-80 min): 15.3% | dose excreted at 1.5 h ([3]; rat, in vivo, iv, 100 umol/kg, Percentage of dose running total in bile, through 80-90 min): 17.5% | Urine concentration ([4]; 0-20 min): 0 µM | Urine concentration ([4]; 20-40 min): 0 µM | Urine concentration ([4]; 40-60 min): 0 µM | Urine concentration ([4]; 60-80 min): 0 µM | Urine concentration ([4]; 80-90 min): 0 µM
